Data from the NIST ThermoML archive (doi:10.1021/je800110r).
Where “and” joins values, the source holds several entries; their conditions need not be identical. Equal values may be shown once.

Conditions: Liquid, Vibrating tube method

CCCCCCCCCC [decane]
Conditions	mass density
283.14 K, 21786 kPa	752.1 kg/m3
283.14 K, 21835 kPa	752.2 kg/m3
283.14 K, 21866 kPa	752.3 kg/m3
283.14 K, 22948 kPa	752.7 kg/m3
283.14 K, 22974 kPa	752.9 kg/m3
283.14 K, 23083 kPa	752.9 kg/m3
283.14 K, 24091 kPa	753.6 kg/m3
283.14 K, 24111 kPa	753.6 kg/m3
283.14 K, 24206 kPa	753.6 kg/m3
283.14 K, 25452 kPa	754.4 kg/m3
283.14 K, 27407 kPa	755.5 kg/m3
283.14 K, 27430 kPa	755.5 kg/m3
283.14 K, 27471 kPa	755.7 kg/m3
283.14 K, 27497 kPa	755.6 kg/m3
283.14 K, 27531 kPa	755.7 kg/m3
283.14 K, 27558 kPa	755.6 kg/m3
283.14 K, 27588 kPa	755.8 kg/m3
283.14 K, 29091 kPa	756.5 kg/m3
283.14 K, 29172 kPa	756.6 kg/m3
283.14 K, 29227 kPa	756.6 kg/m3
283.14 K, 29531 kPa	756.9 kg/m3
283.14 K, 29628 kPa	756.9 kg/m3
283.14 K, 29720 kPa	756.8 kg/m3
283.14 K, 29749 kPa	756.9 kg/m3
283.14 K, 29785 kPa	756.9 kg/m3
283.14 K, 29818 kPa	757 kg/m3
283.14 K, 29843 kPa	756.9 kg/m3
283.14 K, 29867 kPa	757.1 kg/m3
283.14 K, 29895 kPa	757 kg/m3
283.14 K, 29928 kPa	757.2 kg/m3
283.14 K, 29961 kPa	757 kg/m3
283.14 K, 29990 kPa	757.1 kg/m3
283.14 K, 30019 kPa	757.1 kg/m3
283.14 K, 30044 kPa	757.1 kg/m3
283.14 K, 30081 kPa	757.1 kg/m3
283.14 K, 30115 kPa	757.2 kg/m3
283.14 K, 30145 kPa	757.1 kg/m3
283.14 K, 30807 kPa	757.7 kg/m3
283.14 K, 30934 kPa	757.6 kg/m3
283.14 K, 31526 kPa	758 kg/m3
283.14 K, 31540 kPa	758 kg/m3
283.14 K, 31581 kPa	758.1 kg/m3
283.14 K, 31898 kPa	758.1 kg/m3
283.14 K, 31921 kPa	758.2 kg/m3
283.14 K, 31938 kPa	758.2 kg/m3
283.14 K, 31958 kPa	758.3 kg/m3
283.14 K, 31979 kPa	758.2 kg/m3
283.14 K, 32000 kPa	758.3 kg/m3
283.14 K, 32020 kPa	758.2 kg/m3
283.14 K, 32038 kPa	758.2 kg/m3
283.14 K, 32070 kPa	758.2 kg/m3
283.14 K, 32106 kPa	758.4 kg/m3
283.14 K, 32127 kPa	758.3 kg/m3
283.14 K, 32164 kPa	758.3 kg/m3
283.14 K, 32190 kPa	758.4 kg/m3
283.14 K, 32578 kPa	758.6 kg/m3
283.14 K, 33321 kPa	759.1 kg/m3
283.14 K, 33347 kPa	759 kg/m3
283.14 K, 33367 kPa	759 kg/m3
283.14 K, 33396 kPa	759 kg/m3
283.14 K, 33425 kPa	758.9 kg/m3
283.14 K, 33445 kPa	759 kg/m3
283.14 K, 33471 kPa	759.1 kg/m3
283.14 K, 33494 kPa	759.1 kg/m3
283.14 K, 33514 kPa	759 kg/m3
283.14 K, 34282 kPa	759.5 kg/m3
283.14 K, 34384 kPa	759.6 kg/m3
283.14 K, 34405 kPa	759.6 kg/m3
283.14 K, 34424 kPa	759.7 kg/m3
283.14 K, 34465 kPa	759.7 kg/m3
283.15 K, 312 kPa	737.7 kg/m3 and 737.6 kg/m3
283.15 K, 314 kPa	737.5 kg/m3
283.15 K, 361 kPa	737.6 kg/m3
283.15 K, 417 kPa	737.6 kg/m3
283.15 K, 446 kPa	737.8 kg/m3
283.15 K, 603 kPa	737.9 kg/m3
283.15 K, 1468 kPa	738.4 kg/m3
283.15 K, 1599 kPa	738.6 kg/m3
283.15 K, 1655 kPa	738.6 kg/m3
283.15 K, 1727 kPa	738.5 kg/m3
283.15 K, 1798 kPa	738.8 kg/m3
283.15 K, 1897 kPa	738.7 kg/m3
283.15 K, 1959 kPa	738.9 kg/m3
283.15 K, 2028 kPa	738.8 kg/m3
283.15 K, 2118 kPa	738.9 kg/m3
283.15 K, 2175 kPa	739 kg/m3
283.15 K, 2229 kPa	739 kg/m3
283.15 K, 2291 kPa	739.1 kg/m3
283.15 K, 2327 kPa	739.1 kg/m3
283.15 K, 2370 kPa	739 kg/m3
283.15 K, 2425 kPa	739.1 kg/m3
283.15 K, 2520 kPa	739.2 kg/m3
283.15 K, 2614 kPa	739.3 kg/m3
283.15 K, 2634 kPa	739.3 kg/m3
283.15 K, 2647 kPa	739.4 kg/m3
283.15 K, 2708 kPa	739.4 kg/m3
283.15 K, 2730 kPa	739.4 kg/m3
283.15 K, 2749 kPa	739.3 kg/m3
283.15 K, 2767 kPa	739.4 kg/m3
283.15 K, 2789 kPa	739.4 kg/m3
283.15 K, 2807 kPa	739.5 kg/m3
283.15 K, 2822 kPa	739.5 kg/m3
283.15 K, 2835 kPa	739.4 kg/m3
283.15 K, 2864 kPa	739.6 kg/m3
283.15 K, 3136 kPa	739.7 kg/m3
283.15 K, 3226 kPa	739.7 kg/m3
283.15 K, 3273 kPa	739.9 kg/m3
283.15 K, 3287 kPa	739.8 kg/m3
283.15 K, 3296 kPa	739.8 kg/m3
283.15 K, 3307 kPa	739.9 kg/m3
283.15 K, 3341 kPa	739.9 kg/m3
283.15 K, 3352 kPa	739.8 kg/m3
283.15 K, 3361 kPa	739.8 kg/m3
283.15 K, 3373 kPa	739.9 kg/m3
283.15 K, 3380 kPa	740 kg/m3
283.15 K, 3390 kPa	739.9 kg/m3
283.15 K, 3400 kPa	739.8 kg/m3
283.15 K, 3408 kPa	740 kg/m3
283.15 K, 3417 kPa	739.9 kg/m3
283.15 K, 3426 kPa	740 kg/m3
283.15 K, 3434 kPa	739.9 kg/m3
283.15 K, 3443 kPa	739.8 kg/m3
283.15 K, 3452 kPa	740 kg/m3
283.15 K, 3461 kPa	739.9 kg/m3
283.15 K, 3471 kPa	740 kg/m3
283.15 K, 3485 kPa	740 kg/m3
283.15 K, 3496 kPa	739.9 kg/m3
283.15 K, 3507 kPa	740.1 kg/m3
283.15 K, 3517 kPa	740 kg/m3
283.15 K, 3528 kPa	739.9 kg/m3
283.15 K, 3539 kPa	740 kg/m3
283.15 K, 3552 kPa	740 kg/m3
283.15 K, 3563 kPa	740.1 kg/m3
283.15 K, 3575 kPa	740 kg/m3
283.15 K, 3586 kPa	740.2 kg/m3
283.15 K, 3601 kPa	740 kg/m3
283.15 K, 3612 kPa	740.1 kg/m3
